Molecules are shown by their SMILES.

Series [1] deals with T1, β2AR (Homo sapiens, UniProt P07550). The series is described as follows: 35S-GTPγS binding to heterotrimeric Gs (SPA), β2AR in HDL. Conditions: epinephrine (10 µM) stimulation; cmpd-6 or A9 20 µM, Nb6B9 1 µM, ICI-118551 10 µM.
Protocol: After incubations, the β2AR-Gs complexes were captured on YSi beads.
The target in series [2] is T1, β2AR. The series is described as follows: 125I-CYP competition radioligand binding at β2AR in HDL particles (nanodiscs).

T1 sequence (P07550 whole entry): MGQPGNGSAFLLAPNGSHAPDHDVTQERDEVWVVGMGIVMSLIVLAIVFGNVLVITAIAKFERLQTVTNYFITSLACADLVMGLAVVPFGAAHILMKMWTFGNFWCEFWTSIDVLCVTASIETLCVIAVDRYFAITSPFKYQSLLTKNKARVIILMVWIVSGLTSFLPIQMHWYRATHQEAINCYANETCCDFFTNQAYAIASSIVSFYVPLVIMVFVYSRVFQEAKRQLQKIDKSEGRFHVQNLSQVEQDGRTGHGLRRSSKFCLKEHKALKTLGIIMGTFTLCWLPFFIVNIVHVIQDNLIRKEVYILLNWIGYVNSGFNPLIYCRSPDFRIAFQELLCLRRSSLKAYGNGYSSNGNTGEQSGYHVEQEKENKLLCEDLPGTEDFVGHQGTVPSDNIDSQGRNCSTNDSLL

`CC(C)N(C)S(=O)(=O)c1ccc(Sc2ccc(C(N)=O)cc2)c(C(=O)N[C@@H](CC(N)=O)Cc2ccc(C(C)(C)C)cc2)c1` [A9]: the “35S-GTPγS binding to Gs / activation of Gs” value in series [1] is “markedly blocks the agonist-stimulated activation of Gs”. Further, the Kd in series [2] (LogKT, dissociation constant of PAM, carvedilol-bound β2AR) is 2950 nM; in series [2] (binding affinity of modulator for the receptor in the presence of carvedilol, from shifts of carvedilol LogIC50 versus modulator dose) it was approximately 2900 nM. Further, the “PAM activity with agonists including epinephrine (affinity shift)” value in series [2] (analog 20 µM, Fig. 5A(i), 5C) was “absolutely no PAM activity”. Further, the “cooperativity with carvedilol (affinity shift)” value in series [2] (analog 20 µM, Fig. 5A(ii)) was “retains its positive cooperativity with carvedilol”.

(Values after paper PMC8998675 (Molecular Pharmacology, 2021).)
